The results in this text go back to patent US8710233B2 (Gruenenthal GmbH, priority 2005, dated 2014).

Common to all, as to format: cell-based
Test [1] addresses T1, vanilloid receptor 1 (VR1/TRPV1) of the rat species (Rattus norvegicus, UniProt O35433).
T1 construct: The spinal column is removed from decapitated rats; from tissue; host or cells: primary cells dissociated from rat dorsal root ganglia
The test is described as follows: FLIPR Ca2+ influx assay on rat dorsal root ganglia cells (pharmacological method I). The note with it: for pKi: table 4, capsaicin; for inhibition at 10 µM: read-out: inhibition in percent, Ki (rat) Cap. The method in brief: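 Primary rat dorsal root ganglion cells loaded with 2 μM Fluo-4, Ca2+ influx read on FLIPR as peak fluorescence. Triplicates, at least 3 independent experiments.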

In another test the target is T2, vanilloid receptor (VR1) (Homo sapiens, UniProt Q8NER1).
T2 construct: expressed in transfected cells; host or cells: CHO K1 cells (ECACC), stably transfected
Kind of test: FLIPR Ca2+ influx assay on CHO K1 cells transfected with the VR1 gene (pharmacological method II). The note with it: for inhibition at 10 µM: CHO-K1, read-out: inhibition in percent, Ki (human) Cap.

A further test concerns the target VR1/TRPV1 receptor (Homo sapiens, UniProt Q8NER1). Kind of test: IC50 (human) after pH stimulus. The note with it: for pIC50: table 4; for inhibition at 1 µM: ne = no effect.
The mark [2] stands for this setting: table 4, capsaicin, read-out: Ki (human) Cap.
Where [3] appears, read: read-out: inhibition in percent, IC50 (human) after pH stimulus.

The structures appear in SMILES notation. pIC50, pKi: −log10 of the molar value. Read-outs that look alike come from different tables or passages of the source.

T2 sequence (Q8NER1 whole entry): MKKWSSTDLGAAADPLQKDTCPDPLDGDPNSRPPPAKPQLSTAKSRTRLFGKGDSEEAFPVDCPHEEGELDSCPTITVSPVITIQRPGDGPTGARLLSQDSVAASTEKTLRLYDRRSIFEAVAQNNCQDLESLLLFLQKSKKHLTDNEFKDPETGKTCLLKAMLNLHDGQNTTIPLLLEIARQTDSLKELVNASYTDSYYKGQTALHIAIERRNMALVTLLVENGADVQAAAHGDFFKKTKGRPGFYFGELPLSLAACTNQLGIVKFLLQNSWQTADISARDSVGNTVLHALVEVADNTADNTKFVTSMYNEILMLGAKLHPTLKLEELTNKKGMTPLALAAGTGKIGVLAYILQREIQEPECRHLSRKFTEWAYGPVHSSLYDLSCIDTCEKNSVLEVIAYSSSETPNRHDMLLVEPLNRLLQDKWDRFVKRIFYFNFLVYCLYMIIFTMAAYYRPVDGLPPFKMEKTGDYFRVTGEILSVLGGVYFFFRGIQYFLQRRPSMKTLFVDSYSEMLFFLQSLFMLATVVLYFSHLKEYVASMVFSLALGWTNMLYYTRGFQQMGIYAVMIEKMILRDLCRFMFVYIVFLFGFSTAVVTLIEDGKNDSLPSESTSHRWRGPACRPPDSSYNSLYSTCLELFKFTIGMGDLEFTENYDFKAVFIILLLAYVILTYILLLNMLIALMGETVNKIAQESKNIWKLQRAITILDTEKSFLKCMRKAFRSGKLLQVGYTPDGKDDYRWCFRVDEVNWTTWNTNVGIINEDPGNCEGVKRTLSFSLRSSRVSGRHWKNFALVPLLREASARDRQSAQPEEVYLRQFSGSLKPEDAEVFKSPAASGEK
VR1/TRPV1 receptor, sequence (Q8NER1 whole entry): as above
T1 sequence (O35433 whole entry): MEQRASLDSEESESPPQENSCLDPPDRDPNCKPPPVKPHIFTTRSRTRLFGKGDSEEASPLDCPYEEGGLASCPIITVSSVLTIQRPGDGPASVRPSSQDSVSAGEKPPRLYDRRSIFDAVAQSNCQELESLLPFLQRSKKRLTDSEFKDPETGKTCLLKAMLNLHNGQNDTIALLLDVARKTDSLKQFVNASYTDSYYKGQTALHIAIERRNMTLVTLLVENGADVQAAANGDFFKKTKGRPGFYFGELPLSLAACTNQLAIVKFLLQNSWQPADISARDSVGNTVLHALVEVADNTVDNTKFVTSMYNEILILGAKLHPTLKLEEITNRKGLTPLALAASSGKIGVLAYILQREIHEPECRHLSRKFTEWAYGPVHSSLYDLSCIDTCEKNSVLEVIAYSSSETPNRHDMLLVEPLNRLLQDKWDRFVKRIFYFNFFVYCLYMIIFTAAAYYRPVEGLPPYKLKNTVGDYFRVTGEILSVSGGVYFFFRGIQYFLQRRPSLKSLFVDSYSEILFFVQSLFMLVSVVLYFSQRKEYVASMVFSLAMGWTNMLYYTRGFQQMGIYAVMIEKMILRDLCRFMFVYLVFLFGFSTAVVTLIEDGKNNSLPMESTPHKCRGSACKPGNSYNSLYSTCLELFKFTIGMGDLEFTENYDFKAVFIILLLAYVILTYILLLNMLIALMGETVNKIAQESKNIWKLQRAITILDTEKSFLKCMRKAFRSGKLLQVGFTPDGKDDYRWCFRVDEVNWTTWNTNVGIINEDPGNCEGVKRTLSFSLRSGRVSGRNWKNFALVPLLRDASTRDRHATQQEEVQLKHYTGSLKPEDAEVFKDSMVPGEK

One may read the pKi as the Ki on a negative log10 scale, so that one unit is a factor of ten. Broadly, the pIC50 is −log10 of the IC50, conventionally taken in molar units. Lower therefore signals a large IC50. `CC(C(=O)NCc1ccc(C(F)(F)F)nc1OC1CCC1)c1ccc(NS(C)(=O)=O)c(F)c1` (centres unmarked) [Example 156, N-(2-cyclobutoxy-6-trifluoromethyl-pyridin-3-ylmethyl)-2-(3-fluoro-4-methylsulfonamido-phenyl)-propionamide]: the values for the negative logarithm of the Ki (pKi) (in test [1] (Ki (rat) Cap.); at vanilloid receptor (VR1) (setting [2])) were 8.77 and 8.85, respectively. Moreover, the negative-log IC50 (pIC50) on VR1/TRPV1 receptor is 7.16.

`CC1CCC(Oc2nc(C(F)(F)F)ccc2CNC(=O)C(C)c2ccc(NS(C)(=O)=O)c(F)c2)CC1` (centres unmarked) [Example 157, 2-(3-fluoro-4-methylsulfonamido-phenyl)-N-[2-(4-methyl-cyclohexyloxy)-6-trifluoromethyl-pyridin-3-ylmethyl]-propionamide]: the negative logarithm of the Ki (pKi) was 8.89 in test [1] (Ki (rat) Cap.) and 8.54 at vanilloid receptor (VR1) (setting [2]). Further, on VR1/TRPV1 receptor, the negative logarithm of the IC50 (pIC50) was 7.37.

For the molecule `CC(=O)OC1CCN(c2nc(C(F)(F)F)ccc2CNC(=O)C(C)c2ccc(NS(C)(=O)=O)c(F)c2)CC1` (centres unmarked) [Example 158, acetic acid 3′-{[2-(3-fluoro-4-methylsulfonamido-phenyl)-propionylamino]-methyl}-6′-trifluoromethyl-3,4,5,6-tetrahydro-2H-[1,2′]bipyridinyl-4-yl ester], the pKi in test [1] (read-out: Ki (rat) Cap.) is 7.90; on vanilloid receptor (VR1) (setting [2]), 8.40. Also, the pIC50 against VR1/TRPV1 receptor is 6.86.

In the case of `CC(C(=O)NCc1ccc(C(F)(F)F)nc1OCC1CCCC1)c1ccc(NS(C)(=O)=O)c(F)c1` (centres unmarked) [Example 161, N-(2-cyclopentylmethoxy-6-trifluoromethyl-pyridin-3-ylmethyl)-2-(3-fluoro-4-methylsulfonamido-phenyl)-propionamide], the results for the pKi (in test [1] (Ki (rat) Cap.); on vanilloid receptor (VR1) (setting [2])) were 9.15 and 9.40, respectively. Also, the negative-log IC50 (pIC50) on VR1/TRPV1 receptor is 7.94.

The inhibition is the relative decrease from the control value, in per cent. With `CC(C)OC1CCN(c2nc(C(F)(F)F)ccc2CNC(=O)C(C)c2ccc(NS(C)(=O)=O)c(F)c2)CC1` (centres unmarked) [Example 162, 2-(3-fluoro-4-methylsulfonamido-phenyl)-N-(4-isopropoxy-6′-trifluoromethyl-3,4,5,6-tetrahydro-2H-[1,2′]bipyridinyl-3′-ylmethyl)-propionamide], the negative logarithm of the Ki (pKi) in test [1] (read-out: Ki (rat) Cap.) is 8.80; at vanilloid receptor (VR1) (setting [2]), 8.52. Moreover, the inhibition at 1 µM on VR1/TRPV1 receptor (setting [3]) was 58%.

Consider `CCOc1nc(C(F)(F)F)ccc1CNC(=O)C(C)c1ccc(NS(C)(=O)=O)c(F)c1` (centres unmarked) [Example 163, N-(2-ethoxy-6-trifluoromethyl-pyridin-3-ylmethyl)-2-(3-fluoro-4-methylsulfonamido-phenyl)-propionamide], for which the negative logarithm of the Ki (pKi) in test [1] (Ki (rat) Cap.) is 8.07; on vanilloid receptor (VR1) (setting [2]), 7.90. Moreover, on VR1/TRPV1 receptor, the negative logarithm of the IC50 (pIC50) is 6.56.

`CC(C(=O)NCc1ccc(C(F)(F)F)nc1N1CCC(N2CCCCC2)CC1)c1ccc(NS(C)(=O)=O)c(F)c1` (centres unmarked) [Example 164, 2-(3-fluoro-4-methylsulfonamido-phenyl)-N-(6″-trifluoromethyl-3,4,5,6,3′,4′,5′,6′-octahydro-2H,2′H-[1,4′;1′,2″]terpyridin-3″-ylmethyl)-propionamide]: the inhibition at 10 µM in test [1] turned out to be 85%; on vanilloid receptor (VR1), 84%; at VR1/TRPV1 receptor (setting [3]), 30%. The inhibition at 25 µM on VR1/TRPV1 receptor (@ 25 μM, read-out: inhibition in percent, IC50 (human) after pH stimulus) is 28%.

Turning to `CC(C(=O)NCc1ccc(C(F)(F)Cl)nc1OCc1ccccc1)c1ccc(NS(C)(=O)=O)c(F)c1` (centres unmarked) [Example 169, N-[2-benzyloxy-6-(chloro-difluoro-methyl)-pyridin-3-ylmethyl]-2-(3-fluoro-4-methylsulfonamido-phenyl)-propionamide], the pKi in test [1] (read-out: Ki (rat) Cap.) is 9.22; on vanilloid receptor (VR1) (setting [2]) it was 9.05. The same molecule gave a pIC50 against VR1/TRPV1 receptor of 7.39.

For the molecule `CC(C(=O)NCc1ccc(C(F)(F)F)nc1OC1CCC(C(C)(C)C)CC1)c1ccc(NS(C)(=O)=O)c(F)c1` (centres unmarked) [Example 170, N-[2-(4-tert-butyl-cyclohexyloxy)-6-trifluoromethyl-pyridin-3-ylmethyl]-2-(3-fluoro-4-methylsulfonamido-phenyl)-propionamide], the negative logarithm of the Ki (pKi) in test [1] (read-out: Ki (rat) Cap.) was 8.29; on vanilloid receptor (VR1) (setting [2]) it was 8.11. This molecule also had a pIC50 at VR1/TRPV1 receptor of 6.62.

For `Cc1ccc(COc2nc(C(F)(F)F)ccc2CNC(=O)C(C)c2ccc(NS(C)(=O)=O)c(F)c2)cc1` (centres unmarked) [Example 172, 2-(3-fluoro-4-methylsulfonamido-phenyl)-N-[2-(4-methyl-benzyloxy)-6-trifluoromethyl-pyridin-3-ylmethyl]-propionamide], the negative-log Ki (pKi) in test [1] (read-out: Ki (rat) Cap.) was 9.40; on vanilloid receptor (VR1) (setting [2]) it was 8.82. Besides, at VR1/TRPV1 receptor, the pIC50 was 7.28.

Consider `CC(C(=O)NCc1ccc(C(F)(F)F)nc1OCc1ccc(F)cc1)c1ccc(NS(C)(=O)=O)c(F)c1` (centres unmarked) [Example 175, N-[2-(4-fluoro-benzyloxy)-6-trifluoromethyl-pyridin-3-ylmethyl]-2-(3-fluoro-4-methylsulfonamido-phenyl)-propionamide], for which the results for the negative-log Ki (pKi) (in test [1] (read-out: Ki (rat) Cap.); on vanilloid receptor (VR1) (setting [2])) were 8.92 and 8.60, respectively. The same molecule had a pIC50 at VR1/TRPV1 receptor of 7.60.

For `CC(C(=O)NCc1ccc(C(F)(F)F)nc1N1CCN(c2ccncc2)CC1)c1ccc(NS(C)(=O)=O)c(F)c1` (centres unmarked) [Example 176, 2-(3-fluoro-4-methylsulfonamido-phenyl)-N-[2-(4-pyridin-4-yl-piperazin-1-yl)-6-trifluoromethyl-pyridin-3-ylmethyl]-propionamide], the inhibition at 10 µM in test [1] stood at 60%; at vanilloid receptor (VR1), 63%; at VR1/TRPV1 receptor (setting [3]) it was 43%. The inhibition at 1 µM on VR1/TRPV1 receptor (setting [3]) was 13%.

Turning to `CCCCCCOc1nc(C(F)(F)Cl)ccc1CNC(=O)C(C)c1ccc(NS(C)(=O)=O)c(F)c1` (centres unmarked) [Example 180, N-[6-(chloro-difluoro-methyl)-2-hexyloxy-pyridin-3-ylmethyl]-2-(3-fluoro-4-methylsulfonamido-phenyl)-propionamide], the negative logarithm of the Ki (pKi) in test [1] (read-out: Ki (rat) Cap.) is 9.52; on vanilloid receptor (VR1) (setting [2]), 9.10. In addition, at VR1/TRPV1 receptor, the negative-log IC50 (pIC50) was 7.64.

Turning to `CC(C(=O)NCc1ccc(C(F)(F)Cl)nc1OCc1cccnc1)c1ccc(NS(C)(=O)=O)c(F)c1` (centres unmarked) [Example 181, N-[6-(chloro-difluoro-methyl)-2-(pyridin-3-ylmethoxy)-pyridin-3-ylmethyl]-2-(3-fluoro-4-methylsulfonamido-phenyl)-propionamide], the pKi is 8.25 in test [1] (read-out: Ki (rat) Cap.) and 7.84 on vanilloid receptor (VR1) (setting [2]). Moreover, the pIC50 on VR1/TRPV1 receptor is 5.97.

As to `CCCCN(CCCC)c1nc(C(F)(F)F)ccc1CNC(=O)C(C)c1ccc(NS(C)(=O)=O)c(F)c1` (centres unmarked) [Example 183, N-(2-dibutylamino-6-trifluoromethyl-pyridin-3-ylmethyl)-2-(3-fluoro-4-methylsulfonamido-phenyl)-propionamide], the negative-log Ki (pKi) in test [1] (read-out: Ki (rat) Cap.) is 9.15; on vanilloid receptor (VR1) (setting [2]), 9.22. On VR1/TRPV1 receptor, this molecule showed a negative-log IC50 (pIC50) of 7.98.

For `CCCN(CCC)c1nc(C(F)(F)Cl)ccc1CNC(=O)C(C)c1ccc(NS(C)(=O)=O)c(F)c1` (centres unmarked) [Example 186, N-[6-(chloro-difluoro-methyl)-2-dipropylamino-pyridin-3-ylmethyl]-2-(3-fluoro-4-methylsulfonamido-phenyl)-propionamide], the pKi is 9.10 in test [1] (read-out: Ki (rat) Cap.) and 9.22 at vanilloid receptor (VR1) (setting [2]). At VR1/TRPV1 receptor, this molecule showed a negative-log IC50 (pIC50) of 7.42.

As for `CCOC(=O)C1(c2ccccc2)CCN(c2nc(C(F)(F)F)ccc2CNC(=O)C(C)c2ccc(NS(C)(=O)=O)c(F)c2)CC1` (centres unmarked) [Example 189, 3′-{[2-(3-fluoro-4-methylsulfonamido-phenyl)-propionylamino]-methyl}-4-phenyl-6′-trifluoromethyl-3,4,5,6-tetrahydro-2H-[1,2′]bipyridinyl-4-carbonic acid ethyl ester], the pKi in test [1] (Ki (rat) Cap.) is 8.52; at vanilloid receptor (VR1) it was 8.33. The negative logarithm of the IC50 (pIC50) against VR1/TRPV1 receptor is 6.78.

As for `CC(C(=O)NCc1ccc(C(F)(F)F)nc1N1CCC(C(F)(F)F)CC1)c1ccc(NS(C)(=O)=O)c(F)c1` (centres unmarked) [Example 190, N-(4,6′-bis-trifluoromethyl-3,4,5,6-tetrahydro-2H-[1,2′]bipyridinyl-3′-ylmethyl)-2-(3-fluoro-4-methylsulfonamido-phenyl)-propionamide], the pKi in test [1] (read-out: Ki (rat) Cap.) is 9.40; on vanilloid receptor (VR1) (setting [2]), 9.22. The pIC50 at VR1/TRPV1 receptor was 7.51.

Turning to `CC(C(=O)NCc1ccc(C(F)(F)F)nc1C=Cc1ccccc1)c1ccc(NS(C)(=O)=O)c(F)c1` (centres unmarked) [Example 191, 2-(3-fluoro-4-(methylsulfonamido)phenyl)-N-((2-styryl-6-(trifluoromethyl)pyridin-3-yl)methyl)propanamide], the negative logarithm of the Ki (pKi) was 8.70 in test [1] (read-out: Ki (rat) Cap.) and 8.66 at vanilloid receptor (VR1) (setting [2]). Also, the pIC50 against VR1/TRPV1 receptor was 7.07.

With `CC(C(=O)NCc1ccc(C(F)(F)F)nc1CCc1ccccc1)c1ccc(NS(C)(=O)=O)c(F)c1` (centres unmarked) [Example 192, 2-(3-fluoro-4-methylsulfonamido-phenyl)-N-(2-phenethyl-6-trifluoromethyl-pyridin-3-ylmethyl)-propionamide], the negative-log Ki (pKi) is 8.62 in test [1] (read-out: Ki (rat) Cap.) and 8.85 at vanilloid receptor (VR1) (setting [2]). The negative-log IC50 (pIC50) against VR1/TRPV1 receptor is 7.33.

For `CC(C(=O)NCc1ccc(C(F)(F)F)nc1N1CCN(c2ncccc2Cl)CC1)c1ccc(NS(C)(=O)=O)c(F)c1` (centres unmarked) [Example 193, N-{2-[4-(3-chloro-pyridin-2-yl)-piperazin-1-yl]-6-trifluoromethyl-pyridin-3-ylmethyl}-2-(3-fluoro-4-methylsulfonamido-phenyl)-propionamide], the pKi in test [1] (read-out: Ki (rat) Cap.) was 8.49; on vanilloid receptor (VR1) (setting [2]) it was 8.68. Further, at VR1/TRPV1 receptor (setting [3]), the inhibition at 1 µM amounted to 69%.

Consider `Cc1cc(C(C)C(=O)NCc2ccc(C(F)(F)F)nc2N2CCC(C(F)(F)F)CC2)ccc1NS(C)(=O)=O` (centres unmarked) [Example 195, N-(4,6′-bis-trifluoromethyl-3,4,5,6-tetrahydro-2H-[1,2′]bipyridinyl-3′-ylmethyl)-2-(4-methylsulfonamido-3-methyl-phenyl)-propionamide], for which the pKi is 9.40 in test [1] (read-out: Ki (rat) Cap.) and 8.96 on vanilloid receptor (VR1) (setting [2]). At VR1/TRPV1 receptor, this molecule showed a negative logarithm of the IC50 (pIC50) of 7.21.
